Data taken from patent publication US20250275968A1, “INHIBITORS OF TAU PROTEINS” (DEUTSCHES ZENTRUM FÜR NEURODEGENERATIVE ERKRANKUNGEN E.V., priority 2022, published 2025).
Counter-ions that a name gives are not always drawn.

How the values were obtained:
2N4R tau^C291S,C322S = 2N4R tau^C291S,C322S (Homo sapiens, UniProt P10636, C608S/C639S); assay: In vitro seeded aggregation assay of cysteine-free tau mutant (ThT fluorescence); type: biochemical; settings: mole ratios 1:3 and 1:10
Description: Seeded aggregation assays were performed as described above but with 1.0% of the well volume occupied by the seeding mixture sonicated for 1 minute. The assays were performed in the presence and absence of compounds, and working concentrations ranged from 0-250 μM compound. Analyses of the fluorescence curves were performed using Graphpad PRISM version 8. Fluorescence data were fit to a sigmoid function. The number of hours corresponding to half-maximal ThT FluorescenceTM as well as the span of fluorescence intensity (Span) were determined for each sigmoid curve. Statistically significant differences were determined by one-way ANOVA analysis with Dunnett's multiple comparison test or unpaired t-test. The described seeded aggregation protocol was likewise applied to 3R Tau and the […]/[…] mutant of 2N4R Tau.

15N-labeled 2N4R tau = molecular target: T1, 15N-labeled 2N4R tau (Homo sapiens, UniProt P10636); assay: SOFAST-HMQC NMR binding to monomeric tau; settings: for binding to tau (NMR spectroscopy): 18 μM tau, 50 mM sodium phosphate pH 6.8, 16 h at 37° C., spectra at 5° C.
T1 construct: Full-length 2N4R tau was incubated with Osimertinib mesylate
From the text: (A) Overlaid spectra of 2N4R tau with (black) and without (grey) a 100-fold molar excess of Osimertinib mesylate.
To obtain residue-specific information about the interaction between Tau and the compounds, ^1H-^15N correlation spectra of 2N4R Tau were monitored over the course of a titration with increasing amounts of compound. The ^1H-^15N SOFAST-HMQC (Reference: Schanda, P., Kupce, E. & Brutscher, B. SOFAST-HMQC experiments for recording two-dimensional heteronuclear correlation spectra of proteins within a few seconds. J. Biomol. NMR 33, 199-211 (2005)) spectra of [U-^15N]-Tau were acquired at 5° C. on a Bruker 800 MHz spectrometer equipped with a triple-resonance cryoprobe. Tau samples (18-25 μM) were prepared in NMR buffer containing 10% (v/v) D2O, and with compound concentrations that corresponded to Tau:compound mole ratios of 1:10 and 1:100. All NMR samples were incubated overnight (˜16 h) at 37° C. prior to spectral acquisition. Tau amide assignments were taken from a previous study (Reference: Mukrasch, M. et al. Structural polymorphism of 441-residue tau at single residue resolution. PLoS Biol. 7, e34 (2009)). However, because previous assignments were obtained using a Tau sample prepared in the presence of reducing agents, some amide resonances belonging to the repeat region of Tau (close to C291 and C322) were not unambiguously transferred to the SOFAST-HMQC spectra acquired under oxidizing conditions. Therefore, to obtain nearly complete backbone assignments in the repeat region, 3D HNCA, 3D HNCOCA, and 3D CBCACONH spectra were recorded for a [U-^13C,^15N]-4R Tau (K18 construct) sample prepared under the same buffer condition. The weighted, normalized chemical shift perturbations (CSP) were calculated as CSP=√[0.5 [(Δδ H)^2+(Δδ N)^2/25]. NMR signal intensity ratios, I/I0 (where I is the peak intensity of Tau amide backbone resonances in the presence of the compounds, and I0 is the peak intensity in the absence of the compounds), were calculated for each titration point.

Full-length 2N4R tau = molecular target: T2, Full-length 2N4R tau (Homo sapiens, UniProt P10636); assay: MS/MS analysis of compound adduct in tau; type: binding; settings: 1:5 mole ratio tau:compound, overnight at 37° C.
T2 construct: Full-length 2N4R tau was incubated with Osimertinib mesylate
Description: Compounds (330 μM) were incubated with 2N4R Tau (65 μM) in buffer (25 mM HEPES, 10 mM KCl, 5 mM MgCl2, pH 7.2) for 16 h at 37° C. then stored at 4° C. until in-gel digestion.
In-gel digestion using trypsin (Sigma Aldrich) followed by extraction of peptides for mass spectrometry were performed as described previously (Reference: Shevchenko, A., Tomas, H., Havlis, J., Olsen, J. V., and Mann, M. (2006). In-gel digestion for mass spectrometric characterization of proteins and proteomes. Nature protocols 1, 2856-2860). Extracted peptides were resuspended in 2% acetonitrile and 0.05% TFA and analyzed using a Orbitrap Exploris 480 Mass Spectrometer (Thermo Fisher). The mass spectrometer used an emitter voltage at […] and ion transfer tube temperature at 300° C. Full scans were recorded in the range 350 to 1600 m/z with a mass resolution of 15000. Peptides were fragmented in the collision cell with a 28% energy setting. Tandem mass spectra were acquired using Scan Range Mode “Define First Mass” and isolation window of 1.6 m/z with a mass resolution of 15000.

tau(244-372, 13818 Da) = molecular target: T3, tau(244-372, 13818 Da) (Homo sapiens, UniProt P10636); assay: ESI-MS covalent modification of tau; type: binding
T3 construct: comprising residues 244-372 of 2N4R Tau
Description: This analysis was performed using the 4R Tau construct (K18 construct, 13818 Da) comprising residues 244-372 of 2N4R Tau. Compounds (330 μM) were incubated with 4R Tau (65 μM) for 16 h at 37° C. in 10 mM ammonium bicarbonate at pH 7.0. The compound/4R Tau mixtures were injected into an LC system (ACQUITY) coupled to a single quadrupole mass detection system (SQ Detector 2, Waters) with diode-array detectors (DAD). The DAD spectrum covers wavelengths of 210-400 nm. Components of the compound-4R Tau mixture were separated using a BioResolve RP mAb column (Waters) with a gradient of 5-95% buffer B (buffer A is 0.1% TFA in water and buffer B is 0.1% TFA in acetonitrile). Covalent modification of 4R Tau corresponded to mass additions of 500 Da (Osimertinib) and 486 Da (AZ7550 or AZ5104).

2N4R Tau fibrils = molecular target: T4, 2N4R Tau fibrils (Homo sapiens, UniProt P10636); assay: Saturation transfer difference (STD) NMR with tau fibrils; type: binding; settings: 48-fold excess of compound, 100 mM NaCl, 2.5% (v/v) DMSO, pH 6.8, 37° C.
T4 construct: Full-length 2N4R tau was incubated with Osimertinib mesylate
Description: 2N4R Tau fibrils were prepared using the aggregation procedure described in the section in vitro assay 1 without Thioflavin T. The mole ratio of “free” compound to fibrils was 48:1 (corresponding to a total compound concentration of 250 μM and a total fibril concentration of 5 μM Tau). The NMR samples were prepared in 50 mM sodium phosphate with 100 mM NaCl and 2.5% (v/v) DMSO at pH 6.8. The spectra were recorded at 37° C. using a Bruker 700 MHz spectrometer equipped with a triple resonance cryoprobe. 1D ^1H-NMR STD spectra were acquired in an interleaved manner, alternating between off-resonance irradiation at 60 ppm and on-resonance irradiation at −2 ppm.

Solubility in water = type: physicochemical; settings: without cosolvents or counterions

T1 sequence (P10636 1-441 isoform P10636-8): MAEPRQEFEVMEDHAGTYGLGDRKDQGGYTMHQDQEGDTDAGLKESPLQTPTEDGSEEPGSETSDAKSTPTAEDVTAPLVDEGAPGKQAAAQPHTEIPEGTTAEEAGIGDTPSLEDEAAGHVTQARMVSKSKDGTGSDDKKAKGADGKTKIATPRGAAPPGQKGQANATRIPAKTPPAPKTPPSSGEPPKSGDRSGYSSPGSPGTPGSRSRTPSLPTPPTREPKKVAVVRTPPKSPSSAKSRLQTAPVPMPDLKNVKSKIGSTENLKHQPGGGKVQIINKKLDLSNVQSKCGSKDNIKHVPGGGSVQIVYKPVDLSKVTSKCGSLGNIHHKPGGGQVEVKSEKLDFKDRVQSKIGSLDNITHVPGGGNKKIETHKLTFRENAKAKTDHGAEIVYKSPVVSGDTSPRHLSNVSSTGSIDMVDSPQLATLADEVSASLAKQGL
T4 sequence (P10636 1-441 isoform P10636-8): as above
T2 sequence (P10636 1-441 isoform P10636-8): as above
2N4R tau^C291S,C322S, sequence (P10636 1-441 isoform P10636-8 C291S/C322S): as the sequence (P10636 1-441 isoform P10636-8) above, with C291S, C322S counted along it
T3 sequence (P10636 561-689): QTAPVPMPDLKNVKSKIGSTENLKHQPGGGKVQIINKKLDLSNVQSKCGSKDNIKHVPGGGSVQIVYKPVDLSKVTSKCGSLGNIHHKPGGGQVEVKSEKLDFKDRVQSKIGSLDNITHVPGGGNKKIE

| Compound | normalized Span of ThT fluorescence (2N4R tau^C291S,C322S) | normalized Tm (midpoint of aggregation curve) (2N4R tau^C291S,C322S) | binding to tau (NMR spectroscopy) (15N-labeled 2N4R tau) | tau peptide spectrum matches showing compound-modified cysteine sites (Full-length 2N4R tau) | covalent modification of C291 and C322 (peptide mass spectra, LC-MS/MS) (Full-length 2N4R tau; tryptic digestion) | covalent modification of cysteines in tau (ESI-MS) (tau(244-372, 13818 Da)) | STD effect with tau fibrils (fibril binding epitopes) (2N4R Tau fibrils) | solubility in water (Solubility in water) | NMR signal intensity ratio I/I0 (15N-labeled 2N4R tau; 16 h incubation at 37° C.) |
| --- | --- | --- | --- | --- | --- | --- | --- | --- | --- |
| C=CC(=O)Nc1cc(Nc2nccc(-c3cn(C)c4ccccc34)n2)c(OC)cc1N(C)CCN(C)C [Osimertinib mesylate, N-[2-(2-Dimethylaminoethylmethylamino)-4-methoxy-5-[[4-(1-methylindol-3-yl)pyrimidin-2-yl]amino]phenyl]prop-2-enamide Mesylate Salt] | not observed | do not show a clear dose-dependence | reveals binding | about 350 | confirm covalent modification of cysteines in tau | – | – | – | – |
| C=CC(=O)Nc1cc(Nc2nccc(-c3cn(C)c4ccccc34)n2)c(OC)cc1N(C)CCN(C)C [Osimertinib, N-[2-(2-Dimethylaminoethylmethylamino)-4-methoxy-5-[[4-(1-methylindol-3-yl)pyrimidin-2-yl]amino]phenyl]prop-2-enamide] | – | – | – | – | – | confirms covalent modification of cysteines | Protons showing STD effects | poor solubility in water | – |
| C=CC(=O)Nc1cc(Nc2nccc(-c3c[nH]c4ccccc34)n2)c(OC)cc1N(C)CCN(C)C [Compound 3, N-[2-[[2-(dimethylamino)ethyl]methylamino]-5-[[4-(1H-indol-3-yl)-2-pyrimidinyl]amino]-4-methoxyphenyl]-2-Propenamide] | – | – | reveals binding | – | – | confirms covalent modification of cysteines | Protons showing STD effects | – | above 1 |
